35 molecules from patent US20230115534A1 (ARKUDA THERAPEUTICS, priority 2019, published 2023) can be followed below.

The EC50 is the concentration at which the effect is half-maximal.

Where a name gives a salt, the structure may show the parent alone. Bounds are passed on as bounds.

This assay has as its system progranulin (PGRN). Put plainly: progranulin induction cellular assay (PGRN assay), ELISA-based readout. Conditions: PGRN assay as described: mouse primary microglia, primary cortical neurons and BV-2 cell lines; secreted mouse PGRN in medium by ELISA; cell type for Table B not specified. The method, then:
Cellular Assays: To measure the efficacy of compounds, a progranulin induction cellular assay in mouse primary microglia (pMG), primary cortical neurons, and BV-2 cell lines is used. BV-2 cells are split the day before plating into a 96 well plate format at approximately 80%. Cells should be plated the day before and allowed for 1 hour attachment period and for 16 hour incubation. Levels of progranulin secreted into the cell culture medium or retained in the cell lysate can be quantified using an ELISA-based readout and measurement of secreted mouse PGRN in the medium was assessed by the methodology published by Ghidoni et al. 2012. Standard ELISA kits to measure PGRN are available from vendors such as Adipogen, R&D, and Biovendor.
Table B below presents the results of a PGRN assay as described above.
For orientation: ELISA stands for enzyme-linked immunosorbent assay.
The molecule `NC[C@@H]1CC[C@H]1OC(=O)N1CCc2ccccc2[C@@H]1c1ccc(F)cc1` [Compound 4123] gave a concentration for a half-maximal effect (EC50) of more than 2.1 µM.
As to `O=C(O[C@H]1C[C@@H](NCCO)C1)N1CCc2ccccc2[C@@H]1c1ccc(F)cc1` [Compound 4145, cis-3-((2-hydroxyethyl)amino)cyclobutyl (S)-1-(4-fluorophenyl)-3,4-dihydroisoquinoline-2(1H)-carboxylate], the EC50 came to 0.191 µM.
Take `C#CCOCCNC12CC(NC(=O)N3CCc4ccccc4[C@@H]3c3ccc(F)cc3)(C1)C2` [Compound 4011, (S)-1-(4-fluorophenyl)-N-(3-((2-(prop-2-yn-1-yloxy)ethyl)amino)bicyclo[1.1.1]pentan-1-yl)-3,4-dihydroisoquinoline-2(1H)-carboxamide]: the EC50 came out at 5.16 µM.
With `NC1(COC(=O)N2CCc3ccccc3[C@@H]2c2ccc(F)cc2)CC1` [Compound 4033, (1-Aminocyclopropyl)methyl (S)-1-(4-fluorophenyl)-3,4-dihydroisoquinoline-2(1H)-carboxylate hydrochloride] the figure was 0.32 µM.
For `NC[C@H]1C[C@@H](OC(=O)N2CCc3ccccc3[C@@H]2c2ccc(F)cc2)C1` [Compound 4030, Cis-3-(aminomethyl)cyclobutyl (S)-1-(4-fluorophenyl)-3,4-dihydroisoquinoline-2(1H)-carboxylate], the EC50 came out at 9.64 µM.
Consider `NC[C@H]1C[C@H](OC(=O)N2CCc3ccccc3[C@@H]2c2ccc(F)cc2)C1` [Compound 4031, Trans-3-(aminomethyl)cyclobutyl (S)-1-(4-fluorophenyl)-3,4-dihydroisoquinoline-2(1H)-carboxylate], for which the concentration giving a half-maximal response (EC50) is more than 10 µM.
For `NC12CC(NC(=O)N3CCc4ccccc4[C@@H]3c3ccccc3)(C1)C2` [Compound 4135, (S)—N-(3-aminobicyclo[1.1.1]pentan-1-yl)-1-phenyl-3,4-dihydroisoquinoline-2(1H)-carboxamide], a half-maximal response (EC50) required 1.61 µM.
Next, `N[C@H]1CC[C@H](C(=O)N2CCc3ccccc3[C@@H]2c2ccc(F)cc2)CC1` [Compound 4144]: 3.12 µM; `N[C@@H]1CC[C@@H]1OC(=O)N1CCc2ccccc2[C@@H]1c1ccc(F)cc1` (single isomer, unassigned) [Compound 4038]: 1.69 µM.
With `O=C(NC12CC(NCC(F)(F)F)(C1)C2)N1CCc2ccccc2[C@@H]1c1ccc(F)cc1` [Compound 4023, (S)-1-(4-fluorophenyl)-N-(3-((2,2,2-trifluoroethyl)amino)bicyclo[1.1.1]pentan-1-yl)-3,4-dihydroisoquinoline-2(1H)-carboxamide], the EC50 is more than 10 µM.
Molecule `N[C@H]1C[C@@H](C(=O)N2CCc3ccccc3[C@@H]2c2ccc(F)cc2)C1` [Compound 4148, (cis-3-aminocyclobutyl)((S)-1-(4-fluorophenyl)-3,4-dihydroisoquinolin-2(1H)-yl)methanone] returned an EC50 of 0.092 µM.
With `N[C@@H]1CC[C@@H]1CNC(=O)N1CCc2ccccc2[C@@H]1c1ccc(F)cc1` [Compound 4131] the figure was 0.359 µM; with `C#CCNC12CC(NC(=O)N3CCc4ccccc4[C@@H]3c3ccc(F)cc3)(C1)C2` [Compound 4005, (S)-1-(4-fluorophenyl)-N-(3-(prop-2-yn-1-ylamino)bicyclo[1.1.1]pentan-1-yl)-3,4-dihydroisoquinoline-2(1H)-carboxamide 2,2,2-trifluoroacetate], more than 10 µM.
Next, `C[C@]1(N)C[C@@H](NC(=O)N2CCc3ccccc3[C@@H]2c2ccc(F)cc2)C1` [Compound 4041, (S)—N-(cis-3-amino-3-methylcyclobutyl)-1-(4-fluorophenyl)-3,4-dihydroisoquinoline-2(1H)-carboxamide hydrochloride]: 0.31 µM; `N[C@@H]1C[C@H](NC(=O)N2CCc3ccccc3[C@@H]2c2ccc(F)cc2)CC(F)(F)C1` (single isomer, unassigned) [Compound 4141]: 0.201 µM.
Molecule `CNC12CC(OC(=O)N3CCc4ccccc4[C@@H]3c3ccc(F)cc3)(C1)C2` [Compound 4026, 3-(Methylamino)bicyclo[1.1.1]pentan-1-yl (S)-1-(4-fluorophenyl)-3,4-dihydroisoquinoline-2(1H)-carboxylate hydrochloride] returned an EC50 of 0.85 µM.
In turn, `NC[C@H]1CC[C@@H]1OC(=O)N1CCc2ccccc2[C@@H]1c1ccc(F)cc1` [Compound 4064] displayed an EC50 of 0.968 µM.
With `N[C@H]1C[C@H](CC(=O)N2CCc3ccccc3[C@@H]2c2ccc(F)cc2)C1` [Compound 4122] the figure was 0.208 µM; with `N[C@H]1CC[C@@H]1COC(=O)N1CCc2ccccc2[C@@H]1c1ccc(F)cc1` [Compound 4134, ((1S,2S)-2-aminocyclobutyl)methyl (S)-1-(4-fluorophenyl)-3,4-dihydroisoquinoline-2(1H)-carboxylate], 1.29 µM; with `O=C(NC12CC(N3CC(F)(F)C3)(C1)C2)N1CCc2ccccc2[C@@H]1c1ccc(F)cc1` [Compound 4052, (S)—N-(3-(3,3-difluoroazetidin-1-yl)bicyclo[1.1.1]pentan-1-yl)-1-(4-fluorophenyl)-3,4-dihydroisoquinoline-2(1H)-carboxamide], more than 10 µM.
Molecule `CS(=O)(=O)CCNC12CC(OC(=O)N3CCc4ccccc4[C@@H]3c3ccc(F)cc3)(C1)C2` [Compound 4027, 3-((2-(Methylsulfonyl)ethyl)amino)bicyclo[1.1.1]pentan-1-yl (S)-1-(4-fluorophenyl)-3,4-dihydroisoquinoline-2(1H)-carboxylate hydrochloride] came in with an EC50 of 1.06 µM.
`N[C@H]1CC[C@H]1OC(=O)N1CCc2ccccc2[C@@H]1c1ccc(F)cc1` (single isomer, unassigned) [Compound 4037]: the 50% effective concentration (EC50) was more than 10 µM.
Next, `N[C@H]1CCC1OC(=O)N1CCc2ccccc2[C@@H]1c1ccc(F)cc1` (single isomer, unassigned) [Compound 4040, hydrochloride]: 2.33 µM; `CC(C)(NC(=O)N1CCc2ccccc2C1c1ccc(F)cc1)C12CC(N)(C1)C2` [Compound 4050, (S)—N-(2-(3-aminobicyclo[1.1.1]pentan-1-yl)propan-2-yl)-1-(4-fluorophenyl)-3,4-dihydroisoquinoline-2(1H)-carboxamide hydrochloride]: more than 10 µM; `CNC1(COC(=O)N2CCc3ccccc3[C@@H]2c2ccc(F)cc2)CC1` [Compound 4051, (1-(Methylamino)cyclopropyl)methyl (S)-1-(4-fluorophenyl)-3,4-dihydroisoquinoline-2(1H)-carboxylate hydrochloride]: 0.46 µM.
As for `N[C@@H]1CC[C@H]1OC(=O)N1CCc2ccccc2[C@@H]1c1ccc(F)cc1` (single isomer, unassigned) [Compound 4039, hydrochloride], the response was half-maximal at 1.21 µM (EC50).
For the molecule `O=C(OC12CC(N3CCOCC3)(C1)C2)N1CCc2ccccc2[C@@H]1c1ccc(F)cc1` [Compound 4049, 3-Morpholinobicyclo[1.1.1]pentan-1-yl (S)-1-(4-fluorophenyl)-3,4-dihydroisoquinoline-2(1H)-carboxylate hydrochloride], the EC50 is more than 10 µM.
With `CNC12CC(NC(=O)N3CCc4ccccc4[C@@H]3c3ccc(F)cc3)(C1)C2` [Compound 4004, (S)-1-(4-fluorophenyl)-N-(3-(methylamino)bicyclo[1.1.1]pentan-1-yl)-3,4-dihydroisoquinoline-2(1H)-carboxamide] the figure was 0.225 µM; with `C#CCNC12CC(N(CC#C)C(=O)N3CCc4ccccc4[C@@H]3c3ccc(F)cc3)(C1)C2` [Compound 4006, (S)-1-(4-fluorophenyl)-N-(prop-2-yn-1-yl)-N-(3-(prop-2-yn-1-ylamino)bicyclo[1.1.1]pentan-1-yl)-3,4-dihydroisoquinoline-2(1H)-carboxamide], more than 10 µM.
Next, `N[C@H]1C[C@H](CNC(=O)N2CCc3ccccc3[C@@H]2c2ccc(F)cc2)C1` [Compound 4029, Trans-(S)—N-((3-aminocyclobutyl)methyl)-1-(4-fluorophenyl)-3,4-dihydroisoquinoline-2(1H)-carboxamide]: 3.4 µM; `NC12CC(NC(=O)N3CCc4ccccc4C3c3ccc(F)cc3F)(C1)C2` (single isomer, unassigned) [Compound 4137, N-(3-aminobicyclo[1.1.1]pentan-1-yl)-1-(2,4-difluorophenyl)-3,4-dihydroisoquinoline-2(1H)-carboxamide]: 0.091 µM; `NC[C@]1(O)C[C@H](C(=O)N2CCc3ccccc3[C@@H]2c2ccc(F)cc2)C1` [Compound 4154, (trans-3-(aminomethyl)-3-hydroxycyclobutyl)((S)-1-(4-fluorophenyl)-3,4-dihydroisoquinolin-2(1H)-yl)methanone]: 0.112 µM.
Next, `O=C(NC12CC(N3CCOCC3)(C1)C2)N1CCc2ccccc2[C@@H]1c1ccc(F)cc1` [Compound 4013, (S)-1-(4-fluorophenyl)-N-(3-morpholinobicyclo[1.1.1]pentan-1-yl)-3,4-dihydroisoquinoline-2(1H)-carboxamide]: more than 10 µM; `CN[C@H]1C[C@H](N(C)C(=O)N2CCc3ccccc3[C@@H]2c2ccc(F)cc2)C1` [Compound 4044, (S)-1-(4-fluorophenyl)-N-methyl-N-((trans)-3-(methylamino)cyclobutyl)-3,4-dihydroisoquinoline-2(1H)-carboxamide hydrochloride]: 1.03 µM.
The molecule `O=C(OC12CC(NCC(F)(F)F)(C1)C2)N1CCc2ccccc2[C@@H]1c1ccc(F)cc1` [Compound 4014, 3-((2,2,2-trifluoroethyl)amino)bicyclo[1.1.1]pentan-1-yl (S)-1-(4-fluorophenyl)-3,4-dihydroisoquinoline-2(1H)-carboxylate] showed an EC50 of more than 10 µM.
